How the values were obtained:
human macrophages = test: Real-time analysis of phagocytosis of E. coli by human macrophages; assay type: cell-based; details: 1 nM each; for rank of increase in macrophage phagocytosis among individual SPMs: individually
Description: Human peripheral blood mononuclear cells from deidentified healthy human volunteers from the Children's Hospital Boston blood bank were isolated by density-gradient, Ficoll-Histopaque isolation, which was followed by monocyte purification. The monocytes were then cultured for 7 days in RPMI 1640, 10% fetal calf serum (FCS) and were differentiated into macrophages through culturing with granulocyte-macrophage colony-stimulating factor (GM-CSF, 20 ng/ml).
Real-time imaging of human macrophages was performed by plating the cells (50,000 cells/well in PBS++) onto 8-well chamber slides. The chamber slides were kept in a Stage Top Incubation system for microscopes equipped with a built-in digital gas mixer and temperature regulator (TOKAI HIT model INUF-K14). A panel of SPMs (RvE1, RvD1, RvD5, LXB4, and MaR1; 1 nM each or in combination) was added to the macrophages for 15 min, which was followed by the addition of BacLight Green-labeled E. coli (at an E. coli:phagocyte ratio of 50:1). Images were then acquired every 10 min for 3 hours at 37 °C with a Keyence BZ-9000 (BIOREVO) inverted fluorescence phase-contrast microscope (20× objective) equipped with a monochrome-color switching camera using BZ-II Viewer software (Keyence). Mean fluorescence intensity was quantified with a BZ-II Analyzer.

[1] = test system: CREB and S6 in neutrophils and monocytes; test: Single-cell analysis of intracellular signaling in whole blood leukocytes; assay type: cell-based, human
[2] = test system: SPM production in human whole blood; test: SPM and eicosanoid production during coagulation with heparin, eptifibatide, ADA, celecoxib or BAI; assay type: cell-based
Description: FIG. 2 illustrates regulators of SPM formation in human blood. (A to E) Freshly drawn human peripheral blood (4 ml) containing heparin (10 U/ml) was placed in polypropylene tubes (A) whereas human peripheral blood without anticoagulant was placed in silicone-coated tubes (B to E) and incubated at 37° C. for the time course of 0 to 24 hours (see Example 1, Materials and Methods). The samples were then subjected to snap-freezing for extraction and LC-MS/MS analysis. (A) Concentrations of the members of the SPM cluster (identified in FIG. 1) in samples treated without (Coag.) or with heparin (10 U/ml) during the incubation period. Data are means±SEM of three individual donors. (B) Left: Combined concentrations of the total SPM cluster, prostaglandins, and thromboxanes after 24 hours of coagulation in the presence or absence of the αIIbβ3 inhibitor eptifibatide (Eptifib.; 20 μM). Middle: Clot volumes after 24 hours of coagulation of the indicated samples. Right: Representative clot images. Data are means±SEM of three individual donors. (C) Concentrations of total SPMs and of the indicated individual SPMs after 24 hours of coagulation in the presence or absence of 200 mU ADA. Data are means±SEM of three individual donors. *P<0.05, **P<0.01 by ratio t-test. (D) Top: LC-MS/MS measurements of adenosine concentrations in whole blood at the indicated time points during coagulation in the presence or absence of ADA. **P<0.01 when compared to the zero-hour time point. Bottom: Flow cytometric analysis of the percentage of neutrophil-platelet aggregates, which were defined as being double-positive for CD16 and CD42b, in whole blood allowed to coagulate for the indicated times in the absence (Coag.) or presence of ADA. Data are means±SEM of five individual donors. *P<0.05, **P <0.01 by student's t test. For dot plots and gating, see FIG. 7B. (E) MS/MS fragmentation profiles with diagnostic ions for the indicated SPMs identified in (C). (F) Left: PCA score plot. Red denotes +ADA for 1 hour; yellow, coagulation for 1 hour; green, coagulation for 24 hours; blue, +ADA for 24 hours. Right: PCA loading plot showing temporal clustering of the indicated mediators from three individual donors. Red denotes LM at 1 hour; blue denotes 24 hours with ADA).
FIG. 8 illustrates SPM formation in human blood clots being regulated by lipoxygenase activity. (A and B) Freshly drawn human peripheral blood (4 ml) was placed in silicone-coated tubes at 37° C. for 24 hours and coagulation was stopped by snap-freezing before LC-MS/MS analysis was performed. Concentrations of total SPMs, prostaglandins, and thromboxanes after 24 hours of coagulation (Coag.) in the presence or absence of (A) 100 μM indomethacin (Indo.) (n=six individual donors), (B) 500 nM celecoxib (CLX) or 20 μM BAI (n=three individual donors). […]

E. coli = test: Whole blood bacterial killing during coagulation; assay type: cell-based; details: BAI 200 μM, 24 h
Description: FIG. 10 illustrates the inhibitor of SPM formation BAI reduces bacterial killing. Freshly drawn human peripheral blood (4 mL) was placed in silicone-coated tubes at 37° C. for 24 h and was either stopped by snap freezing for LC-MS/MS, or supernatants were placed on LB agar plates and incubated overnight at 37° C. before enumeration of bacterial colonies. (A) Bacterial survival and (B) SPM in human peripheral blood (2.0 mL) incubated with E. coli (7×10^8 CFU) in the presence or absence of a LOX inhibitor (BAI) 200 μM for 24 h; 37° C. (n=4 individual donors). Data are means±SEM; *P<0.05, ****P<0.0001 for +BAI vs. Coag using ratio t-test.
Fresh human blood (2.0 ml) without anticoagulant was incubated with E. coli (˜7×108) in the presence or absence of 200 µM baicalein (a LOX inhibitor; Sigma) and allowed to coagulate at 37° C. for 24 hours. Serum from blood were diluted in PBS on ice and aliquots were placed on LB agar and incubated overnight in a 37° C. incubator. Colonies were enumerated.

[3] = test system: prostaglandin, thromboxane and SPM production in human whole blood; test: LM metabololipidomics of human whole blood during coagulation in the presence of indomethacin; assay type: cell-based; details: 100 μM indomethacin
Description: FIG. 8 illustrates SPM formation in human blood clots being regulated by lipoxygenase activity. (A and B) Freshly drawn human peripheral blood (4 ml) was placed in silicone-coated tubes at 37° C. for 24 hours and coagulation was stopped by snap-freezing before LC-MS/MS analysis was performed. Concentrations of total SPMs, prostaglandins, and thromboxanes after 24 hours of coagulation (Coag.) in the presence or absence of (A) 100 μM indomethacin (Indo.) (n=six individual donors), (B) 500 nM celecoxib (CLX) or 20 μM BAI (n=three individual donors). Data are means±SEM; *P<0.05 for +BAI vs. Coag; ****P<0.0001 for +Indo vs. Coag. using ratio t-test.
Human whole blood was transferred in 4-ml aliquots to negatively charged, silicone-coated 10-ml tubes (BD) without anticoagulant. For experiments with heparin, the heparinized blood was placed in 15-ml polypropylene tubes before incubation at 37° C. For LM profiling at designated times, all samples were immediately subjected to a workup procedure by which whole blood was snap-frozen in a dry ice/isopropanol bath and were returned to room temperature (×3 cycles) before undergoing centrifugation at 100,000 g at 4° C. Supernatants (and clots for select experiments; see FIG. 6) were collected and were subjected to LC-MS/MS LM metabololipidomics. […]

Compound | extent of phagocytosis of E. coli by human macrophages, individual SPMs (human macrophages) | intracellular signaling in neutrophils and monocytes [1] | other results
CCCCC[C@H](O)[C@H](O)/C=C/C=C/C=C\C=C\[C@@H](O)CCCC(=O)O [LXB4, lipoxin B4: (5S, 14R, 15S-trihydroxy-eicosa-6E, 8Z, 10E, 12E-tetraenoic acid)] | statistically significantly enhanced | activated CREB and S6 | rank of increase in macrophage phagocytosis among individual SPMs (human macrophages): greatest increases
CC/C=C\C/C=C\C[C@H](O)\C=C/C=C/C=C/[C@H](O)C/C=C\CCC(=O)O [Maresin 1, maresin 1 (7R, 14S-dihydroxy-docosa-4Z, 8E, 10E, 12Z, 16Z, 19Z-hexaenoic acid)] | statistically significantly enhanced | activated CREB and S6 | 
CC/C=C\C[C@H](O)/C=C/C=C\C=C\C=C\[C@@H](O)[C@@H](O)C/C=C\CCC(=O)O [RvD1, Resolvin D1 (7S, 8R, 17S-trihydroxy-docosa-4Z, 9E, 11E, 13Z, 15E, 19Z-hexaenoic acid)] | statistically significantly enhanced | activated CREB and S6 | 
CC/C=C\C[C@H](O)/C=C/C=C\C/C=C\C=C\[C@@H](O)C/C=C\CCC(=O)O [RvD5, Resolvin D5 (7S, 17S-dihydroxy-docosa-4Z, 8E, 10Z, 13Z, 15E, 19Z-hexaenoic acid)] |  | activated CREB and S6 | 
CC[C@@H](O)/C=C/C=C\C[C@@H](O)/C=C/C=C/C=C\[C@@H](O)CCCC(=O)O [RvE1, Resolvin E1 (5S, 12R, 18R-trihydroxy-eicosa-6Z, 8E, 10E, 14Z, 16E-pentaenoic acid)] | statistically significantly enhanced | activated CREB and S6 | rank of increase in macrophage phagocytosis among individual SPMs (human macrophages): greatest increases
O=c1cc(-c2ccccc2)oc2cc(O)c(O)c(O)c12 [baicalein] |  |  | total amounts of SPMs ([2]; 20 μM BAI, 24 hours): reduced the total amounts of SPMs; increase in bacterial counts in the presence of the lipoxygenase inhibitor (E. coli; P<0.0001): > 10 fold; reduction in the abundances of members of the SPM cluster from coagulation (E. coli; with E. coli): > 80%
COc1ccc2c(c1)c(CC(=O)O)c(C)n2C(=O)c1ccc(Cl)cc1 [indomethacin] |  |  | total SPM amounts compared to absence of inhibitor [3]: did not substantially change; inhibition at 100 µM ([3]; Homo sapiens, 24 hours vs. coagulation alone, read-out: inhibition of total prostaglandin and thromboxane production): > 99%
heparin |  |  | reduction of SPMs in total in blood containing heparin ([2]; heparin 10 U/ml): 98%

— patent US11592453B2, “Personalized metabolomic profiling of specialized pro-resolving mediators” (THE BRIGHAM AND WOMEN'S HOSPITAL, INC., priority 2016, dated 2023)
